Test results from patent publication US20130011855A1, “Methods for Determining Aged Based Accumulation of Senescent Cells Using Senescense Specific DNA Damage Markers” (priority 2008, published 2013).

Key:
ATM/ATR p (S/TQ) = assay: Relative immunofluorescent intensity of ATM/ATR p (S/TQ) foci in frozen liver sections; format: in vivo; conditions: single i.p. injection to juvenile mice, liver hepatocytes
Protocol: (§1) Eight to eleven-day-old F1 mice from C57BL/6, obtained from the National Institute of Aging, Aged Rodent Colonies (Bethesda, Md.), were injected intraperitoneally with AAT (Sigma-Aldrich; St. Louis, Mo.) at 2 mg/kg body weight in corn oil. […] Control gender-matched litter mates were injected with corn oil or PBS. […] Female C57BL/6 mice (4- and 22-month-old) were allowed to acclimate at least 1 week prior to usage. All procedures were done within the guidelines of the Animal Research Committee at the University of Illinois at Chicago and the “Principles of laboratory animal care” (NIH publication No. 86-23, revised 1985).
(§2) To detect DNA damage foci, frozen 5-micron liver sections were rapidly transferred to slides after sectioning, then immediately fixed in 2% paraformaldehyde PBS for 20 min, and then prepared following standard protocols. […] Foci-associated nuclei and total nuclei were counted using Image Pro Plus software (MediaCybernetics, Bethesda, Md.). Three to four mice were used for each time point and 300-500 nuclei were counted for each subject. Relative fluorescence intensity of foci in images was quantitated using the density measurement of the Image Pro Plus software with subtraction of local background levels. Four to seven mice were studied per time point with 8 to 18 53BP1/phospho ATM foci scored per mouse. […]

ATM p (S1987) = assay: Relative immunofluorescent intensity of phospho ATM foci in frozen liver sections; format: in vivo, mice; conditions: for Relative immunofluorescent intensity of foci for ATM p (S1987): single i.p. injection to juvenile mice, liver hepatocytes; for signal strength of phospho ATM in 53BP1/phospho ATM foci: by 7 weeks after exposure
Protocol: as §1
To detect DNA damage foci, frozen 5-micron liver sections were rapidly transferred to slides after sectioning, then immediately fixed in 2% paraformaldehyde PBS for 20 min, and then prepared following standard protocols. […] The specificity was verified by blockage with oligopeptides bearing the antigenic sequences. Antiphospho ATM (S1981) (Rockland Immunochemicals, Gilbertsville, Pa.; 1:800) was a mouse antibody. Anti-rabbit and anti-mouse secondary antibodies conjugated to Cy-3 were obtained from Jackson Immunoresearch (West Grove, Pa.). Prior to mouse primary antibody application, tissues were first blocked with 1% goat anti-mouse FAB (Jackson Immunoresearch) followed by incubation with 4% BSA. Slides were counterstained with 0.2 ug/ml 4′,6-diamidino-2-phenylindole (DAPI) for 2 min prior to mounting in mowiol (Calbiochem; San Diego, Calif.) with 2% 1,4-diazobicyclo[2,2,2]octane (Sigma-Aldrich). Fluorescent 400× images were typically collected immediately after the assay. Foci-associated nuclei and total nuclei were counted using Image Pro Plus software (MediaCybernetics, Bethesda, Md.). Three to four mice were used for each time point and 300-500 nuclei were counted for each subject. Relative fluorescence intensity of foci in images was quantitated using the density measurement of the Image Pro Plus software with subtraction of local background levels. Four to seven mice were studied per time point with 8 to 18 53BP1/phospho ATM foci scored per mouse. Minimally exposed images were used. The student's t-test was used for statistical comparisons for these and other experiments. For double labeling with anti-phospho ATM (S1981) and anti-53BP1 antibodies, sections were prepared as described above, first labeling with the anti-phospho-ATM (S1981) and Cy-3 secondary antibody as above, then incubated with 4% BSA, followed by anti-53BP1 and then by Alexa 488 conjugated goat anti-rabbit antibody (Invitrogen; Carlsbad, Calif.; 1:200). All secondary antibodies were pre-adsorbed to reduce cross-reactivity as verified by negative control experiments.

[1] = tested on: 53BP1/phospho ATM (S1981) foci in hepatocytes; assay: Hepatocytes positive for 53BP1/phospho ATM co-localized foci in liver sections; format: in vivo, mice
Protocol: as §1, §2

[2] = tested on: 53BP1 foci in hepatocytes; assay: 53BP1 foci immunolocalization in hepatocytes of frozen liver sections; format: in vivo, mice; conditions: by 2.5 days after exposure
Protocol: Eight to eleven-day-old F1 mice from C57BL/6, obtained from the National Institute of Aging, Aged Rodent Colonies (Bethesda, Md.), were injected intraperitoneally with AAT (Sigma-Aldrich; St. Louis, Mo.) at 2 mg/kg body weight in corn oil. […] Control gender-matched litter mates were injected with corn oil or PBS. […] All procedures were done within the guidelines of the Animal Research Committee at the University of Illinois at Chicago and the “Principles of laboratory animal care” (NIH publication No. 86-23, revised 1985).
To detect DNA damage foci, frozen 5-micron liver sections were rapidly transferred to slides after sectioning, then immediately fixed in 2% paraformaldehyde PBS for 20 min, and then prepared following standard protocols. […] The specificity was verified by blockage with oligopeptides bearing the antigenic sequences. […] Foci-associated nuclei and total nuclei were counted using Image Pro Plus software (MediaCybernetics, Bethesda, Md.). Three to four mice were used for each time point and 300-500 nuclei were counted for each subject. Relative fluorescence intensity of foci in images was quantitated using the density measurement of the Image Pro Plus software with subtraction of local background levels. Four to seven mice were studied per time point with 8 to 18 53BP1/phospho ATM foci scored per mouse. […]

phospho Chk2 (T68) = assay: Phospho Chk2 (T68) nuclear immunostaining of liver sections; format: in vivo, mice
Protocol: as §1, §2

p53 (S 15) = assay: Phospho p53 (S15) immunostaining of liver sections; format: in vivo, mice; conditions: baseline or near baseline levels by 3-7 weeks post exposure
Protocol: as §1, §2

primary hepatocytes [3] = assay: S phase index by [3H]thymidine labeling of hepatocytes isolated from exposed mice; format: cell-based; conditions: hepatocytes from juvenile mice exposed 3 weeks previously
Protocol: (§3) FIG. 5A Collagenase perfusion was used to isolate hepatocytes from juvenile mice exposed 3 weeks previously to AAT. Twenty-four hours prior to fixation, cells were incubated with [3H]thymidine to allow the quantitation of the S phase index after processing for autoradiography. Shown are the means plus the (standard deviations) S.D. *P<0.002 versus the controls. FIG. 5B Cells isolated as described above from mice exposed, or not exposed, to AAT were subjected to the SA-β-Gal assay after fixation. At least 100 cells were counted on each plate from 3 to 5 control mice and 5 to 6 AAT exposed mice depending on the time point. Shown are the means plus S.D. *P<0.05 versus the controls. FIG. 5C Shown is a representative bright field image of primary hepatocytes 3 days after culture. Arrows indicate the blue, peri-nuclear stained, SA β Gal-positive cells. To reduce background [3H]thymidine detection was not done in this experiment. The phase contrast image below allows better visualization of the cells, original magnification 100×. FIG. 5D Hepatocytes isolated from adult 4-month-old and 22-month-old were cultured and assayed for S phase index as described. Shown are means plus S.D. There is a lag in S phase entry in cells from these adult mice. *P<0.02 and **P<0.004. FIG. 5E Hepatocytes from young adult and aged adult mice were cultured as described and then subjected to the SA β Gal assay. […]

primary hepatocytes [4] = assay: SA β Gal assay on hepatocytes isolated from exposed mice; format: cell-based; conditions: hepatocytes from exposed mice in primary culture
Protocol: as §3, with “100×.” for “100×. FIG. 5D Hepatocytes isolated from adult 4-month-old and 22-month-old were cultured and assayed for S phase index as described. Shown are means plus S.D. There is a lag in S phase entry in cells from these adult mice. *P<0.02 and **P<0.004. FIG. 5E Hepatocytes from young adult and aged adult mice were cultured as described and then subjected to the SA β Gal assay.”
DNA damage repair proteins such as Chk2 that are active in DDR are not active during senesce. […] There was no enrichment of activated phospho p53 (S15) or Chk2 (T68), while phospho ATM (S1981) positive cells were detected but the foci were of low intensity (FIG. 3, Table 1, data not shown). […]

## Cc1cc(N=Nc2ccccc2C)ccc1N [AAT, aminoazotoluene]
ATM/ATR p (S/TQ); 3 Wk post exposure
  Relative immunofluorescent intensity of foci for ATM/ATR p (S/TQ): 100 ± 20.0
ATM/ATR p (S/TQ); 7 Wk post exposure
  Relative immunofluorescent intensity of foci for ATM/ATR p (S/TQ): 50 ± 17.5^A
ATM p (S1987); 3 Wk post exposure
  Relative immunofluorescent intensity of foci for ATM p (S1987): 100 ± 4.50
ATM p (S1987); 7 Wk post exposure
  Relative immunofluorescent intensity of foci for ATM p (S1987): 50 ± 9.80^D
ATM p (S1987)
  signal strength of phospho ATM in 53BP1/phospho ATM foci: significant decreases in the signal strength of phospho ATM
[1]; 1 and 3 weeks after genotoxin exposure
  nuclear foci containing both 53BP1 and phospho ATM: elevated levels of nuclear foci
[1]; 7 weeks after exposure, versus unexposed control mice
  cells with 53BP1/phospho ATM foci: still present at higher levels than in the unexposed control mice
[2]
  53BP1 foci in hepatocytes: Appearance of 53BP1 foci
Phospho Chk2 (T68); 0.5 and 1 week after exposure
  phospho Chk2 positive nuclei: high levels of nuclear staining
Phospho Chk2 (T68); baseline or near baseline levels by 3-7 weeks post exposure
  activation of Chk2 (T68) over time: activated only transiently
p53 (S 15)
  activation of p53 (S 15) over time: activated only transiently
Primary hepatocytes [3]
  S phase entry of isolated hepatocytes: defective for S phase entry
Primary hepatocytes [4]
  SA β Gal staining of isolated hepatocytes: positive for SA β Gal

## CO[C@@]12[C@H](COC(N)=O)C3=C(C(=O)C(C)=C(N)C3=O)N1C[C@@H]1N[C@@H]12 [mitomycin C]
ATM p (S1987)
  signal strength of phospho ATM in 53BP1/phospho ATM foci: significant decreases in the signal strength of phospho ATM
